These compounds were tested against Calcium/calmodulin-dependent protein kinase type 1G (Homo sapiens) (UniProt Q96NX5).
Chain of Calcium/calmodulin-dependent protein kinase type 1G (Homo sapiens) (Q96NX5 whole entry): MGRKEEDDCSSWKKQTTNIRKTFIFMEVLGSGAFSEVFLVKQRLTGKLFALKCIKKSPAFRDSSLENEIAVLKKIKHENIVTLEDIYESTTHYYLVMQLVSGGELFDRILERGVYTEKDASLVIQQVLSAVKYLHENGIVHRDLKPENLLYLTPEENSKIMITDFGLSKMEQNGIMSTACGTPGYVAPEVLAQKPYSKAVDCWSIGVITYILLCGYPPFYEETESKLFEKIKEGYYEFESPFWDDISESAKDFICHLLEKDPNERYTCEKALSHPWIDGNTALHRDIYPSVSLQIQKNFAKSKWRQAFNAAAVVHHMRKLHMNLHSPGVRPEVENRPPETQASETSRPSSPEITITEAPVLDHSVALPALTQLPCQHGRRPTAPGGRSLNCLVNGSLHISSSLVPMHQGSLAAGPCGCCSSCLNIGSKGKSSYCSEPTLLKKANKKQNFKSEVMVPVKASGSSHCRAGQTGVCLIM

ΔTm	SMILES
1.7 °C	Cc1[nH]c(/C=C2\C(=O)Nc3ccc(S(=O)(=O)N(C)c4cccc(Cl)c4)cc32)c(C)c1C(=O)N1CCN(C)CC1
2 °C	COc1cc2ncnc(Nc3ccc(NC(=O)c4ccccc4)cc3)c2cc1OC [ANILINOQUINAZOLINE1]

SMILES	ΔTm
C=CNC#N	0.4 °C

The compounds below were run against Calcium/calmodulin-dependent protein kinase type II subunit alpha (Homo sapiens) (UniProt Q9UQM7).
Chain of Calcium/calmodulin-dependent protein kinase type II subunit alpha (Homo sapiens) (Q9UQM7 whole entry): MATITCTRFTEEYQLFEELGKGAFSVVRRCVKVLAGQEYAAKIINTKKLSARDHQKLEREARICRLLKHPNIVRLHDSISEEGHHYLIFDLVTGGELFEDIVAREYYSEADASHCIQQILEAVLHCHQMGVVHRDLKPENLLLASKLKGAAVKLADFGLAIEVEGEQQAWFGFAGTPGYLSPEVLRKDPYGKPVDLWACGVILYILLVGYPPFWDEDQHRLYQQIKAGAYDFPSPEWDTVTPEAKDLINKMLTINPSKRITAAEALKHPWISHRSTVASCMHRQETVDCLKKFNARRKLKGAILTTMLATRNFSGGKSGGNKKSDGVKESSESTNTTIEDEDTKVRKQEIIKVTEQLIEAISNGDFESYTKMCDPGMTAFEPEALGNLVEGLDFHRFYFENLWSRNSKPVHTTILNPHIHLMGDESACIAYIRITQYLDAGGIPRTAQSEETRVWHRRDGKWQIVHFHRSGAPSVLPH

ΔTm	SMILES
3 °C	Cc1[nH]c(/C=C2\C(=O)Nc3ccc(S(=O)(=O)N(C)c4cccc(Cl)c4)cc32)c(C)c1C(=O)N1CCN(C)CC1
0 °C	COc1cc2ncnc(Nc3ccc(NC(=O)c4ccccc4)cc3)c2cc1OC [ANILINOQUINAZOLINE1]

SMILES	ΔTm
C=CNC#N	0.7 °C

These compounds were tested against Calcium/calmodulin-dependent protein kinase type II subunit beta (Homo sapiens) (UniProt Q13554).

ΔTm	SMILES
0.8 °C	Cc1[nH]c(/C=C2\C(=O)Nc3ccc(S(=O)(=O)N(C)c4cccc(Cl)c4)cc32)c(C)c1C(=O)N1CCN(C)CC1
0.3 °C	COc1cc2ncnc(Nc3ccc(NC(=O)c4ccccc4)cc3)c2cc1OC [ANILINOQUINAZOLINE1]

SMILES	ΔTm
C=CNC#N	1.2 °C

What follows are compounds tested against Calcium/calmodulin-dependent protein kinase type II subunit delta (Homo sapiens) (UniProt Q13557).

ΔTm	SMILES
0.5 °C	Cc1[nH]c(/C=C2\C(=O)Nc3ccc(S(=O)(=O)N(C)c4cccc(Cl)c4)cc32)c(C)c1C(=O)N1CCN(C)CC1
0.4 °C	COc1cc2ncnc(Nc3ccc(NC(=O)c4ccccc4)cc3)c2cc1OC [ANILINOQUINAZOLINE1]

SMILES	ΔTm
C=CNC#N	0.7 °C

Each compound was assayed against Calcium/calmodulin-dependent protein kinase type II subunit gamma (Homo sapiens) (UniProt Q13555).

ΔTm	SMILES
0.6 °C	Cc1[nH]c(/C=C2\C(=O)Nc3ccc(S(=O)(=O)N(C)c4cccc(Cl)c4)cc32)c(C)c1C(=O)N1CCN(C)CC1
0.2 °C	COc1cc2ncnc(Nc3ccc(NC(=O)c4ccccc4)cc3)c2cc1OC [ANILINOQUINAZOLINE1]

SMILES	ΔTm
C=CNC#N	0.5 °C

What follows are compounds tested against Dual specificity protein kinase CLK2 (Homo sapiens) (UniProt P49760).

ΔTm	SMILES
5.9 °C	Cc1[nH]c(/C=C2\C(=O)Nc3ccc(S(=O)(=O)N(C)c4cccc(Cl)c4)cc32)c(C)c1C(=O)N1CCN(C)CC1
0 °C	COc1cc2ncnc(Nc3ccc(NC(=O)c4ccccc4)cc3)c2cc1OC [ANILINOQUINAZOLINE1]

SMILES	ΔTm
C=CNC#N	0.6 °C

The compounds below were run against Dual specificity protein kinase CLK3 (Homo sapiens) (UniProt P49761).
Chain of Dual specificity protein kinase CLK3 (Homo sapiens) (P49761 whole entry, looked up): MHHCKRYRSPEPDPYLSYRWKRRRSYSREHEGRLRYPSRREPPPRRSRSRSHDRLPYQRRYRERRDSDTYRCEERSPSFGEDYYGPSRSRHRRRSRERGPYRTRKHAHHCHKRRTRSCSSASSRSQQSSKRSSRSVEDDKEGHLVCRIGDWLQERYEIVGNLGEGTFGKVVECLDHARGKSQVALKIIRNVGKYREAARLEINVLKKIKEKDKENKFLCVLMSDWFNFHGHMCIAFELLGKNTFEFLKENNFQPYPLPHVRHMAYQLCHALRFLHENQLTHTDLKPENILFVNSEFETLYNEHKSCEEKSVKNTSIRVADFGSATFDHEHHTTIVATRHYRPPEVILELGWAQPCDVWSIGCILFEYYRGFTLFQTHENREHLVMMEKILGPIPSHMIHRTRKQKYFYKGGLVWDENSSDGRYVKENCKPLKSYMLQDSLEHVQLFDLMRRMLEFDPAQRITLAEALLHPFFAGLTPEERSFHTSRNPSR

ΔTm	SMILES
3.7 °C	Cc1[nH]c(/C=C2\C(=O)Nc3ccc(S(=O)(=O)N(C)c4cccc(Cl)c4)cc32)c(C)c1C(=O)N1CCN(C)CC1
0.4 °C	COc1cc2ncnc(Nc3ccc(NC(=O)c4ccccc4)cc3)c2cc1OC [ANILINOQUINAZOLINE1]

SMILES	ΔTm
C=CNC#N	0.2 °C

The compounds below were run against Casein kinase I isoform gamma-1 (Homo sapiens) (UniProt Q9HCP0).

ΔTm	SMILES
0.6 °C	Cc1[nH]c(/C=C2\C(=O)Nc3ccc(S(=O)(=O)N(C)c4cccc(Cl)c4)cc32)c(C)c1C(=O)N1CCN(C)CC1
1.1 °C	COc1cc2ncnc(Nc3ccc(NC(=O)c4ccccc4)cc3)c2cc1OC [ANILINOQUINAZOLINE1]

SMILES	ΔTm
C=CNC#N	0.7 °C

These compounds were tested against Death-associated protein kinase 3 (Homo sapiens) (UniProt O43293).

SMILES	ΔTm
Cc1[nH]c(/C=C2\C(=O)Nc3ccc(S(=O)(=O)N(C)c4cccc(Cl)c4)cc32)c(C)c1C(=O)N1CCN(C)CC1	2.6 °C
COc1cc2ncnc(Nc3ccc(NC(=O)c4ccccc4)cc3)c2cc1OC [ANILINOQUINAZOLINE1]	0.5 °C
C=CNC#N	-0.2 °C

What follows are compounds tested against T1, Myotonin-protein kinase (Homo sapiens) (UniProt Q09013).
T1 sequence (whole entry): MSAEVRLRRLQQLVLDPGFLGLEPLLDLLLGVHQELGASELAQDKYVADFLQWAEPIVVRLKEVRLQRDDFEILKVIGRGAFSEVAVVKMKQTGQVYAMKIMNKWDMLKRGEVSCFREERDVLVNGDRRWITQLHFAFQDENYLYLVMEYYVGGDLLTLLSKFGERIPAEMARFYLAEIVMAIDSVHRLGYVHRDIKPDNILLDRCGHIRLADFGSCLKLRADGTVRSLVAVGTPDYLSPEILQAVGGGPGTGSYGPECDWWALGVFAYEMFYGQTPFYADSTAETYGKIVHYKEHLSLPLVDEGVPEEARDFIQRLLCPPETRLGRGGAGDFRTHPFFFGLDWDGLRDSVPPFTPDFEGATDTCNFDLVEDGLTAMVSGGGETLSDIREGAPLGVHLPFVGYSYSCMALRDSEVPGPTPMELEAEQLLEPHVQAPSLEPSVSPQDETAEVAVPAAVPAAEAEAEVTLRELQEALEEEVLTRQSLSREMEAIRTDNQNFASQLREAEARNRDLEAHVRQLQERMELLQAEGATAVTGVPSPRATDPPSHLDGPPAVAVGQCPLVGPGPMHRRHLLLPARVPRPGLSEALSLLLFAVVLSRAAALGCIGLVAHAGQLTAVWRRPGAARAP

ΔTm	SMILES
2.2 °C	Cc1[nH]c(/C=C2\C(=O)Nc3ccc(S(=O)(=O)N(C)c4cccc(Cl)c4)cc32)c(C)c1C(=O)N1CCN(C)CC1
1.1 °C	COc1cc2ncnc(Nc3ccc(NC(=O)c4ccccc4)cc3)c2cc1OC [ANILINOQUINAZOLINE1]

SMILES	ΔTm
C=CNC#N	1.3 °C

Each compound was assayed against Dual specificity mitogen-activated protein kinase kinase 2 (Homo sapiens, UniProt P36507).

ΔTm	SMILES
1 °C	Cc1[nH]c(/C=C2\C(=O)Nc3ccc(S(=O)(=O)N(C)c4cccc(Cl)c4)cc32)c(C)c1C(=O)N1CCN(C)CC1
0 °C	COc1cc2ncnc(Nc3ccc(NC(=O)c4ccccc4)cc3)c2cc1OC [ANILINOQUINAZOLINE1]

SMILES	ΔTm
C=CNC#N	1.8 °C

These compounds were tested against T2, Dual specificity mitogen-activated protein kinase kinase 6 (Homo sapiens) (UniProt P52564).
T2 sequence (whole entry): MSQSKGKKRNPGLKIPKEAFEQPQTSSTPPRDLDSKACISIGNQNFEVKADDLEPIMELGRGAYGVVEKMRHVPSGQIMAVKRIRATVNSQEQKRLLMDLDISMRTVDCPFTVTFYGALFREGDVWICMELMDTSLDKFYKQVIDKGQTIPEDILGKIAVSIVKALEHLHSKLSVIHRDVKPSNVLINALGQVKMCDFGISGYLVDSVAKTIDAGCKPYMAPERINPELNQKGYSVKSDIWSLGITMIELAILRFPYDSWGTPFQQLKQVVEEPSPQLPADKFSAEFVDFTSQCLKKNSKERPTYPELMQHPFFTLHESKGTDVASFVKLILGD

ΔTm	SMILES
3 °C	Cc1[nH]c(/C=C2\C(=O)Nc3ccc(S(=O)(=O)N(C)c4cccc(Cl)c4)cc32)c(C)c1C(=O)N1CCN(C)CC1
0.2 °C	COc1cc2ncnc(Nc3ccc(NC(=O)c4ccccc4)cc3)c2cc1OC [ANILINOQUINAZOLINE1]

SMILES	ΔTm
C=CNC#N	0.3 °C

These compounds were tested against Mitogen-activated protein kinase 3 (Homo sapiens, UniProt P27361).
Chain of Mitogen-activated protein kinase 3 (P27361 whole entry): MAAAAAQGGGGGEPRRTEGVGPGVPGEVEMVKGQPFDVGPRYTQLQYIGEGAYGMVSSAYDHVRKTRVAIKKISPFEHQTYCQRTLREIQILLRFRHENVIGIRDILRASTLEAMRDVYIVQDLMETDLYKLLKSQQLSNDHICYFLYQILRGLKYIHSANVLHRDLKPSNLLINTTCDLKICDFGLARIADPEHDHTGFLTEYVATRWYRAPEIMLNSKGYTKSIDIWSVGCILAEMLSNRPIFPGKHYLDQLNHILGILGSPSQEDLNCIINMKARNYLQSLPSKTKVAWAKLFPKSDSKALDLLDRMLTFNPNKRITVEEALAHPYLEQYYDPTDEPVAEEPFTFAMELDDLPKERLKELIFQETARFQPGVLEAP

ΔTm	SMILES
0.1 °C	Cc1[nH]c(/C=C2\C(=O)Nc3ccc(S(=O)(=O)N(C)c4cccc(Cl)c4)cc32)c(C)c1C(=O)N1CCN(C)CC1
0.4 °C	COc1cc2ncnc(Nc3ccc(NC(=O)c4ccccc4)cc3)c2cc1OC [ANILINOQUINAZOLINE1]

SMILES	ΔTm
C=CNC#N	-0.6 °C

What follows are compounds tested against Mitogen-activated protein kinase 6 (Homo sapiens) (UniProt Q16659).
Chain of Mitogen-activated protein kinase 6 (Homo sapiens) (Q16659 whole entry): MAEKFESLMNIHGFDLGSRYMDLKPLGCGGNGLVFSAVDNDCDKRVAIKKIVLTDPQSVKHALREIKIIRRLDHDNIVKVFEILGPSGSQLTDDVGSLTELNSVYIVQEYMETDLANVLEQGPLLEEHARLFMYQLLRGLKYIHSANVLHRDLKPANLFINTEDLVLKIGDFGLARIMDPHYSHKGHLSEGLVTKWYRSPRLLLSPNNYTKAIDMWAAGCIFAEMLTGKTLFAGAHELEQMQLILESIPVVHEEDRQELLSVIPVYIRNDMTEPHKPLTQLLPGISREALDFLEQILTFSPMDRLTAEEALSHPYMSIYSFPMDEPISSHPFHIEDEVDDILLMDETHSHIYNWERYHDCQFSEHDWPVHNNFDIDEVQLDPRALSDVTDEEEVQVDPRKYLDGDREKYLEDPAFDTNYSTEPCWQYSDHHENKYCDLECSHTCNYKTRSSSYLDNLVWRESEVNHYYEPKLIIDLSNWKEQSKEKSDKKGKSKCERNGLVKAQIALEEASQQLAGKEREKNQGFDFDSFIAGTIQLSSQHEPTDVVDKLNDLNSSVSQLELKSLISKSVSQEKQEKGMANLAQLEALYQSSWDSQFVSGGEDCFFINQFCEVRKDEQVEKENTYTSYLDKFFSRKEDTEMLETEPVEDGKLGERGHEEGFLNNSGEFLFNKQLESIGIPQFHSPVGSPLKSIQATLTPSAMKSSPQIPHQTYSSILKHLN

ΔTm	SMILES
1.4 °C	Cc1[nH]c(/C=C2\C(=O)Nc3ccc(S(=O)(=O)N(C)c4cccc(Cl)c4)cc32)c(C)c1C(=O)N1CCN(C)CC1
-0.1 °C	COc1cc2ncnc(Nc3ccc(NC(=O)c4ccccc4)cc3)c2cc1OC [ANILINOQUINAZOLINE1]

SMILES	ΔTm
C=CNC#N	1 °C

What follows are compounds tested against Serine/threonine-protein kinase OSR1 (Homo sapiens) (UniProt O95747).
Chain of Serine/threonine-protein kinase OSR1 (Homo sapiens) (O95747 2-527 limits assumed): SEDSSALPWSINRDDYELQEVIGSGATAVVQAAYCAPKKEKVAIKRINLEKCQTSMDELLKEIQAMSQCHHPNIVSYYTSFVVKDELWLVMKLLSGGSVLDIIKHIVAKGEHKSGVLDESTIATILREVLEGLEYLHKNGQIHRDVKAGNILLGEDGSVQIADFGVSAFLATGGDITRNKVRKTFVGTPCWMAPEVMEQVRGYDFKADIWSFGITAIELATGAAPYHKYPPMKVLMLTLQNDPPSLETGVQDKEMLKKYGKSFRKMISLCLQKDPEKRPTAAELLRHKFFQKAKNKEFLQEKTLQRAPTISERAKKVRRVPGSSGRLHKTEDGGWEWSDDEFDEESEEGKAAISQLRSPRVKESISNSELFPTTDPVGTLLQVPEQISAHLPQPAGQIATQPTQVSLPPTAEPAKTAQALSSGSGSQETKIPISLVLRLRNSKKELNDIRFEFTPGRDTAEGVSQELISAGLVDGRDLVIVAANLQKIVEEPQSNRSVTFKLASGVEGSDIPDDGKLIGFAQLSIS

ΔTm	SMILES
1.6 °C	Cc1[nH]c(/C=C2\C(=O)Nc3ccc(S(=O)(=O)N(C)c4cccc(Cl)c4)cc32)c(C)c1C(=O)N1CCN(C)CC1
0.3 °C	COc1cc2ncnc(Nc3ccc(NC(=O)c4ccccc4)cc3)c2cc1OC [ANILINOQUINAZOLINE1]

SMILES	ΔTm
C=CNC#N	0 °C

Each compound was assayed against Serine/threonine-protein kinase PLK1 (Homo sapiens) (UniProt P53350).
Chain of Serine/threonine-protein kinase PLK1 (Homo sapiens) (P53350 whole entry): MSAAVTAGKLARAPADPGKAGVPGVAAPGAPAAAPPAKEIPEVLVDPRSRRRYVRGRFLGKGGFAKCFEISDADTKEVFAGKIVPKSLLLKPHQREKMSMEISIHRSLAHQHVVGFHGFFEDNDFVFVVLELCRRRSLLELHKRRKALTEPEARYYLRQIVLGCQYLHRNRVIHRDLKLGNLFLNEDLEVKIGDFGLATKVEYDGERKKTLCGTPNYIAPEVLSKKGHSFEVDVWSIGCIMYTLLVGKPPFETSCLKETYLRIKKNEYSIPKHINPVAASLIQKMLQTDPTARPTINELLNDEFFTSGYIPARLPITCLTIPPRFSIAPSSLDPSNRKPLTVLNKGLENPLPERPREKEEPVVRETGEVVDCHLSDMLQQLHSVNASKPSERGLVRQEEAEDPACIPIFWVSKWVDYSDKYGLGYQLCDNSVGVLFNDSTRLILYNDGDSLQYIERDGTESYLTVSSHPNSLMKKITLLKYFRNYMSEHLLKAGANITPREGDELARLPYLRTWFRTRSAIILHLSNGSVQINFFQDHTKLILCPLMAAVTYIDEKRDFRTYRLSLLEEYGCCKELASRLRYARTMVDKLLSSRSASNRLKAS

ΔTm	SMILES
1.9 °C	Cc1[nH]c(/C=C2\C(=O)Nc3ccc(S(=O)(=O)N(C)c4cccc(Cl)c4)cc32)c(C)c1C(=O)N1CCN(C)CC1
-0.5 °C	COc1cc2ncnc(Nc3ccc(NC(=O)c4ccccc4)cc3)c2cc1OC [ANILINOQUINAZOLINE1]

SMILES	ΔTm
C=CNC#N	0.1 °C

The compounds below were run against TRAF2 and NCK-interacting protein kinase (Homo sapiens) (UniProt Q9UKE5).
Chain of TRAF2 and NCK-interacting protein kinase (Homo sapiens) (Q9UKE5 whole entry, looked up): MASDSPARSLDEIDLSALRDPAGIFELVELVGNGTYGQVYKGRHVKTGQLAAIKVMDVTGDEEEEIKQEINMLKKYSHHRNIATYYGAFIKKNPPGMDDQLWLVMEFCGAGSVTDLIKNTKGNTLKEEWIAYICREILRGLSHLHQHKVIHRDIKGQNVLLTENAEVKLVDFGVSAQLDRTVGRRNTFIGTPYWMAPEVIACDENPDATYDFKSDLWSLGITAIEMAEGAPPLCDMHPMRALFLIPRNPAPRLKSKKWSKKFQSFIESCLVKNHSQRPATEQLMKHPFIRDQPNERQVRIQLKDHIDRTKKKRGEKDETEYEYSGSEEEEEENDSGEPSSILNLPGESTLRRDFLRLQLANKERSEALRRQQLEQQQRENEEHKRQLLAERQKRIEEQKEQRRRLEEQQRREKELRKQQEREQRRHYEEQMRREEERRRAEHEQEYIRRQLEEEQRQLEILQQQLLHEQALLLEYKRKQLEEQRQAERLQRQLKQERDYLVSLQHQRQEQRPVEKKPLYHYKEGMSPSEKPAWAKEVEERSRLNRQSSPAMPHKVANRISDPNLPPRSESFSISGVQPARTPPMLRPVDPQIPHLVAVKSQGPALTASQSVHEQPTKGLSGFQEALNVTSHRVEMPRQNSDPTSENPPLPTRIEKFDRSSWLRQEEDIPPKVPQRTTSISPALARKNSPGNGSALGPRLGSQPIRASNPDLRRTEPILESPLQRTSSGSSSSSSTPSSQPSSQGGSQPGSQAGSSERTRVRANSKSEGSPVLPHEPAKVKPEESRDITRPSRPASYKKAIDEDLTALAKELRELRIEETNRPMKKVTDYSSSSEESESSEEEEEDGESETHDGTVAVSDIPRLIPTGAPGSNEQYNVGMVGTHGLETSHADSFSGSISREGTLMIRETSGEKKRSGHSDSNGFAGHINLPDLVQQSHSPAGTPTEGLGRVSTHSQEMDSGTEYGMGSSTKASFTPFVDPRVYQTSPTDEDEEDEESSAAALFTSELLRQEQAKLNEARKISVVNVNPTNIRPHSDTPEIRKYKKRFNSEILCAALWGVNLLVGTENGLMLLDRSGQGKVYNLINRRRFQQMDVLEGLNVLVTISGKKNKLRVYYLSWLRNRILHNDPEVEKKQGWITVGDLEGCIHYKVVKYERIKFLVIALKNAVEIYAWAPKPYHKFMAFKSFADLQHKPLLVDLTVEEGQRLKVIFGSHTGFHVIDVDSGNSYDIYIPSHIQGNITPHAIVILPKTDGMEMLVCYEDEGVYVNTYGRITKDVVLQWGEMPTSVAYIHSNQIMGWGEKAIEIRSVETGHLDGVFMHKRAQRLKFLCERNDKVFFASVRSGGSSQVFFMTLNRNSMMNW

ΔTm	SMILES
0.4 °C	Cc1[nH]c(/C=C2\C(=O)Nc3ccc(S(=O)(=O)N(C)c4cccc(Cl)c4)cc32)c(C)c1C(=O)N1CCN(C)CC1
0.9 °C	COc1cc2ncnc(Nc3ccc(NC(=O)c4ccccc4)cc3)c2cc1OC [ANILINOQUINAZOLINE1]

SMILES	ΔTm
C=CNC#N	0.1 °C

Each compound was assayed against T3, Serine/threonine-protein kinase VRK1 (Homo sapiens) (UniProt Q99986).
T3 sequence (whole entry): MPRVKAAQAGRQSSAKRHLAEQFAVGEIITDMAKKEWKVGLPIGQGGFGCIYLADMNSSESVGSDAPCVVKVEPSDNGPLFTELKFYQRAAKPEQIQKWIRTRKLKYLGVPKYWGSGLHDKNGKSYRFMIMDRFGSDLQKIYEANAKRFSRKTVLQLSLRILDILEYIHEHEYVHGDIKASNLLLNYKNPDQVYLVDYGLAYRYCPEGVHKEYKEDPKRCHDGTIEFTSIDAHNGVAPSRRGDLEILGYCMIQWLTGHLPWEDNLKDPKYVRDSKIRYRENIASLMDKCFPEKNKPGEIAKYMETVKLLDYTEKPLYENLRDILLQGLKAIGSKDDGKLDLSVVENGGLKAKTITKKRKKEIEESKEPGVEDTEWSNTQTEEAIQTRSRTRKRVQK

ΔTm	SMILES
1.5 °C	Cc1[nH]c(/C=C2\C(=O)Nc3ccc(S(=O)(=O)N(C)c4cccc(Cl)c4)cc32)c(C)c1C(=O)N1CCN(C)CC1
0.5 °C	COc1cc2ncnc(Nc3ccc(NC(=O)c4ccccc4)cc3)c2cc1OC [ANILINOQUINAZOLINE1]

SMILES	ΔTm
C=CNC#N	1 °C
